Results published in ChEMBL document CHEMBL4177524, “Discovery of hepatitis B virus capsid assembly inhibitors leading to a heteroaryldihydropyrimidine based clinical candidate (GLS4)” (Bioorg Med Chem, 2017).

Tests used:
[1] = Cytotoxicity in human HepG2.215 cells assessed as reduction in cell viability after 5 days by CCK8 assay; type: cell-based, HepG2 2.2.15; conditions: HepG2.2.15 cells
[2] = molecular target: Core antigen (Hepatitis B virus) (UniProt Q03732); assay: Inhibition of hepatitis B virus capsid assembly infected in human HepG2.215 cells assessed as reduction in viral DNA replication measured on day 7 by real time PCR analysis; type: cell-based
Hepatitis B virus [3] = assay: Antiviral activity against telbivudine-resistant hepatitis B virus harboring reverse transcriptase M204I mutant infected in human Huh7 cells assessed as reduction in secreted DNA levels measured on day 7 by real-time PCR analysis; type: functional, organism-based; conditions: Huh-7, 168 h
Hepatitis B virus [4] = assay: Antiviral activity against telbivudine-resistant hepatitis B virus harboring reverse transcriptase L180M/M204V double mutant infected in human Huh7 cells assessed as reduction in intracellular DNA levels measured on day 7 by real-time PCR analysis; type: functional, organism-based; conditions: Huh-7, 168 h
Hepatitis B virus [5] = assay: Antiviral activity against telbivudine-resistant hepatitis B virus harboring reverse transcriptase L180M/M204V double mutant infected in human Huh7 cells assessed as reduction in secreted DNA levels measured on day 7 by real-time PCR analysis; type: functional, organism-based; conditions: Huh-7, 168 h
Hepatitis B virus [6] = assay: Antiviral activity against telbivudine-resistant wild type hepatitis B virus infected in human Huh7 cells assessed as reduction in secreted DNA levels measured on day 7 by real-time PCR analysis; type: functional, organism-based; conditions: Huh-7, 168 h
Hepatitis B virus [7] = assay: Antiviral activity against telbivudine-resistant hepatitis B virus harboring reverse transcriptase M204I mutant infected in human Huh7 cells assessed as reduction in intracellular DNA levels measured on day 7 by real-time PCR analysis; type: functional, organism-based; conditions: Huh-7, 168 h
Hepatitis B virus [8] = assay: Antiviral activity against entecavir-resistant hepatitis B virus harboring reverse transcriptase M204I/S202G double mutant infected in human Huh7 cells assessed as reduction in intracellular DNA levels measured on day 7 by real-time PCR analysis; type: functional, organism-based; conditions: Huh-7, 168 h
Hepatitis B virus [9] = assay: Antiviral activity against entecavir-resistant hepatitis B virus harboring reverse transcriptase M204I/S202G double mutant infected in human Huh7 cells assessed as reduction in secreted DNA levels measured on day 7 by real-time PCR analysis; type: functional, organism-based; conditions: Huh-7, 168 h
Hepatitis B virus [10] = assay: Antiviral activity against entecavir-resistant hepatitis B virus harboring reverse transcriptase M204I/S202G/M250V triple mutant infected in human Huh7 cells assessed as reduction in secreted DNA levels measured on day 7 by real-time PCR analysis; type: functional, organism-based; conditions: Huh-7, 168 h
Hepatitis B virus [11] = assay: Antiviral activity against entecavir-resistant hepatitis B virus harboring reverse transcriptase M204I/S202G/M250V triple mutant infected in human Huh7 cells assessed as reduction in intracellular DNA levels measured on day 7 by real-time PCR analysis; type: functional, organism-based; conditions: Huh-7, 168 h
Hepatitis B virus [12] = assay: Antiviral activity against entecavir-resistant wild type hepatitis B virus infected in human Huh7 cells assessed as reduction in intracellular DNA levels measured on day 7 by real-time PCR analysis; type: functional, organism-based; conditions: Huh-7, 168 h
Hepatitis B virus [13] = assay: Antiviral activity against entecavir-resistant wild type hepatitis B virus infected in human Huh7 cells assessed as reduction in secreted DNA levels measured on day 7 by real-time PCR analysis; type: functional, organism-based; conditions: Huh-7, 168 h

Sequence of Core antigen (Hepatitis B virus) (Q03732 as listed by the source): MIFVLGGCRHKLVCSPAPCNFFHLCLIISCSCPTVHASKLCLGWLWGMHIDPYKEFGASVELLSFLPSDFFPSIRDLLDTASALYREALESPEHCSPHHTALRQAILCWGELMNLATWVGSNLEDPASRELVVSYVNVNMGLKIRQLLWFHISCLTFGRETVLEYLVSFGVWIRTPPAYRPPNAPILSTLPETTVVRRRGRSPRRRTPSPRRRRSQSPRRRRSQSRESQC

**Q.** Which CC50 at 120 h [1] does the source give for C[C@H](Cn1cnc2c(N)ncnc21)OCP(=O)(O)O [TENOFOVIR ANHYDROUS] here?
**A.** 399 µM

**Q.** With COC(=O)C1=C(C)NC(c2ncc(F)cc2F)=N[C@H]1c1ccc(F)cc1Cl as the compound, how does the EC90 [2] read?
**A.** 0.102 µM

**Q.** For Cc1cn([C@@H]2C[C@@H](O)[C@H](CO)O2)c(=O)[nH]c1=O [TELBIVUDINE], which CC50 at 120 h [1] is on record?
**A.** > 200 µM

**Q.** And the EC50 (Hepatitis B virus [3])?
**A.** > 20 µM

**Q.** And the EC50 (Hepatitis B virus [4])?
**A.** > 20 µM

**Q.** What about the EC50 (Hepatitis B virus [5]) of the same compound?
**A.** > 20 µM

**Q.** And the EC50 (Hepatitis B virus [6])?
**A.** 0.569 µM

**Q.** And the EC50 (Hepatitis B virus [7])?
**A.** > 20 µM

**Q.** With C=C1[C@H](CO)[C@@H](O)C[C@@H]1n1cnc2c(=O)[nH]c(N)nc21 as the compound, how does the CC50 at 120 h [1] read?
**A.** 30 µM

**Q.** And the EC50 (Hepatitis B virus [8])?
**A.** > 20 µM

**Q.** And the EC50 (Hepatitis B virus [9])?
**A.** > 20 µM

**Q.** And the EC50 (Hepatitis B virus [10])?
**A.** > 20 µM

**Q.** What about the EC50 (Hepatitis B virus [11]) of the same compound?
**A.** > 20 µM

**Q.** What about the EC50 (Hepatitis B virus [12]) of the same compound?
**A.** 0.013 µM

**Q.** What about the EC50 (Hepatitis B virus [13]) of the same compound?
**A.** 0.014 µM
